These results are taken from patent publication US20220104492A1, “PYRIDAZINIUM COMPOUNDS FOR USE IN A METHOD OF CONTROLLING UNWANTED PLANT GROWTH” (SYNGENTA CROP PROTECTION AG, priority 2019, published 2022).

Common to all, as to test: Post-emergence efficacy (glasshouse, spray application)
Holding throughout (assay type): in vivo

The subject of one assay is Lolium perenne (LOLPE). Conditions: 312 h, Application rate 500 g/Ha, evaluated after 13 days, 100=total damage to plant, 0=no damage to plant, read-out: Control of weed species after post-emergence application, LOLPE. The method, then: (§1) Seeds of a variety of test species were sown in standard soil in pots. After cultivation for 14 days (post-emergence) under controlled conditions in a glasshouse (at 24/16° C., day/night; 14 hours light; 65 humidity), the plants were sprayed with an aqueous spray solution derived from the dissolution of the technical active ingredient formula (I) in a small amount of acetone and a special solvent and emulsifier mixture referred to as IF50 (11.12% Emulsogen EL360 TM+44.44% N-methylpyrrolidone+44.44% Dowanol DPM glycol ether), to create a 50 g/l solution which was then diluted to required concentration using a solution of 0.25% or 1% Empicol ESC70 (Sodium lauryl ether sulphate)+1% ammonium sulphate in water as diluent.
(§2) The test plants were then grown in a glasshouse under controlled conditions (at 24/16° C., day/night; 14 hours light; 65% humidity) and watered twice daily. After 13 days the test was evaluated (100=total damage to plant; 0=no damage to plant).
(§3) Ipomoea hederacea (IPOHE), Euphorbia heterophylla (EPHHL), Chenopodium album (CHEAL), Amaranthus palmeri (AMAPA), Lolium perenne (LOLPE), Digitaria sanguinalis (DIGSA), Eleusine indica (ELEIN), Echinochloa crus-galli (ECHCG), Setaria faberi (SETFA)

Assay [1] has as its system Euphorbia heterophylla (EPHHL). Conditions: 312 h, Application rate 500 g/Ha, evaluated after 13 days, 100=total damage to plant, 0=no damage to plant, read-out: Control of weed species after post-emergence application, EPHHL. The method, then: as §1, §2, §3
The subject of assay [2] is Amaranthus palmeri (AMAPA). Conditions: 312 h, Application rate 500 g/Ha, evaluated after 13 days, 100=total damage to plant, 0=no damage to plant, read-out: Control of weed species after post-emergence application, AMAPA. How it is done: as §1, §2, §3
Assay [3] deals with Echinochloa crus-galli (ECHCG). Particulars: 312 h, Application rate 500 g/Ha, evaluated after 13 days, 100=total damage to plant, 0=no damage to plant, read-out: Control of weed species after post-emergence application, ECHCG. How it is done: as §1, §2, §3
The test system of another assay is Setaria faberi (SETFA). Conditions: 312 h, Application rate 500 g/Ha, evaluated after 13 days, 100=total damage to plant, 0=no damage to plant, read-out: Control of weed species after post-emergence application, SETFA. The method, then:
as §1, §2, §3

Assay [4] has as its system Digitaria sanguinalis (DIGSA). Particulars: 312 h, Application rate 500 g/Ha, evaluated after 13 days, 100=total damage to plant, 0=no damage to plant, read-out: Control of weed species after post-emergence application, DIGSA. How it is done: as §1, §2, §3
A further assay relates to Eleusine indica (ELEIN). Conditions: 312 h, Application rate 500 g/Ha, evaluated after 13 days, 100=total damage to plant, 0=no damage to plant, read-out: Control of weed species after post-emergence application, ELEIN. The method, then:
as §1, §2, §3

Assay [5] has as its system Chenopodium album (CHEAL). Conditions: 312 h, Application rate 500 g/Ha, evaluated after 13 days, 100=total damage to plant, 0=no damage to plant, read-out: Control of weed species after post-emergence application, CHEAL. How it is done:
as §1, §2, §3

Assay [6] has as its system Ipomoea hederacea (IPOHE). Conditions: 312 h, Application rate 500 g/Ha, evaluated after 13 days, 100=total damage to plant, 0=no damage to plant, read-out: Control of weed species after post-emergence application, IPOHE. How it is done: as §1, §2, §3

In the case of `CN(CC[n+]1ccc(-c2ncccn2)cn1)S(=O)(=O)CC(=O)O` [Compound A30, 2-[methyl-[2-(4-pyrimidin-2-ylpyridazin-1-ium-1-yl)ethyl]-sulfamoyl]acetic acid chloride], the pest or weed control at 500 g/ha was 50% in the assay with Lolium perenne (LOLPE); 90% in assay [1]; 100% in assay [2]; 100% in assay [3]; 60% in the assay with Setaria faberi (SETFA); 70% in [4]. Further, the results for the pest or weed control at 500 g/ha (in the assay with Eleusine indica (ELEIN); in [5]; in [6]) were 40%, 80% and 20%, respectively.
In the case of `CC(=O)N(CC[n+]1ccc(-c2ncccn2)cn1)CC(=O)O` [Compound A31], the pest or weed control at 500 g/ha in the assay with Lolium perenne (LOLPE) was found to be 20%; in [1], 90%; in [2], 100%; in assay [3], 60%; with Setaria faberi (SETFA), 60%; in assay [4] it was 80%. The pest or weed control at 500 g/ha in the assay on Eleusine indica (ELEIN) was determined as 60%; in [5], 90%; in [6], 50%.
For the molecule `CC(C)(NC(=O)CC[n+]1ccc(-c2ncccn2)cn1)C(=O)O` [Compound A32], the pest or weed control at 500 g/ha was determined as 60% in the assay with Lolium perenne (LOLPE); 80% in [1]; 100% in assay [2]; 70% in [3]; 80% with Setaria faberi (SETFA); 80% in assay [4]. Besides, the pest or weed control at 500 g/ha in the assay with Eleusine indica (ELEIN) amounted to 80%; in [5] it was 100%; in assay [6], 30%.
In the case of `O=C(O)CSC[n+]1ccc(-c2ncccn2)cn1` [Compound A33, 2-[(4-pyrimidin-2-ylpyridazin-1-ium-1-yl)methylsulfanyl]acetic acid 2,2,2-trifluoroacetate], the pest or weed control at 500 g/ha with Lolium perenne (LOLPE) was 70%; in assay [1], 100%; in [2], 100%; in assay [3] it was 100%; in the assay with Setaria faberi (SETFA) it was 90%; in assay [4], 100%. In addition, the pest or weed control at 500 g/ha in the assay with Eleusine indica (ELEIN) turned out to be 100%; in [5] it was 100%; in [6] it was 40%.
As to `CN(CC(=O)O)C(=O)C[n+]1ccc(-c2ccccn2)cn1` [Compound A34], the pest or weed control at 500 g/ha in the assay on Lolium perenne (LOLPE) worked out at 10%; in [1], 50%; in assay [2] it was 90%; in assay [3], 30%; in the assay with Setaria faberi (SETFA), 40%; in [4] it was 20%. The pest or weed control at 500 g/ha with Eleusine indica (ELEIN) amounted to 20%; in assay [5], 0%; in assay [6], 40%.
On to `O=C(O)CNC(=O)C[n+]1ccc(-c2cnccn2)cn1` [Compound A35], for which the pest or weed control at 500 g/ha with Lolium perenne (LOLPE) came to 0%; in [1], 40%; in assay [2], 70%; in assay [3], 50%; with Setaria faberi (SETFA), 60%; in assay [4], 100%. The values for the pest or weed control at 500 g/ha (in the assay on Eleusine indica (ELEIN); in [5]; in [6]) were 60%, 40% and 20%, respectively.
With `CC(C)(CC(=O)O)NC(=O)CC[n+]1ccc(-c2ncccn2)cn1` [Compound A36], the pest or weed control at 500 g/ha stood at 90% in the assay with Lolium perenne (LOLPE); 90% in assay [1]; 100% in [2]; 40% in assay [3]; 100% with Setaria faberi (SETFA); 100% in assay [4]. In addition, the results for the pest or weed control at 500 g/ha (in the assay with Eleusine indica (ELEIN); in assay [5]; in [6]) were 100%, 100% and 20%, respectively.
